PubChem BioAssay AID1919015 (Molecular Pharmacology Branch, DTP, NCI, 2023)
Several values for one entry are separate records, joined by “and”; a condition that tells them apart may be missing. Equal values may be shown once.

Tested on: OVCAR-5 complex spheroids with HUVEC/MSC, viability, % test/control
Test: Anticancer human tumor OVCAR-5 cell line growth inhibition [AhR];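 note: spheroids exposed to compounds for 7 days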;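 for viability, T/C: 100% = DMSO vehicle control wells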
Conditions: for viability, T/C: stronger effect = lower value
How it was run: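 Spheroids combined tumor cells with HUVEC endothelial cells and human MSCs as stroma. AhR antagonists were paired with standard or investigational drugs, each dosed in half-log steps down from near clinical Cmax, or from 10 microM where Cmax was unknown.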

[1] = curve of first compound, second compound 0.1 µM
[2] = curve of first compound, second compound 0.316 µM
[3] = curve of first compound, second compound 1 µM
[4] = curve of first compound, second compound 3.16 µM
[5] = curve of first compound, second compound 10 µM
[6] = second compound 0.1 µM, first compound 0.00949 µM
[7] = second compound 0.1 µM, first compound 0.03 µM
[8] = second compound 0.1 µM, first compound 0.0949 µM
[9] = second compound 0.1 µM, first compound 0.3 µM
[10] = second compound 0.316 µM, first compound 0.00949 µM
[11] = second compound 0.316 µM, first compound 0.03 µM
[12] = second compound 0.316 µM, first compound 0.0949 µM
[13] = second compound 0.316 µM, first compound 0.3 µM
[14] = second compound 1 µM, first compound 0.00949 µM
[15] = second compound 1 µM, first compound 0.03 µM
[16] = second compound 1 µM, first compound 0.0949 µM
[17] = second compound 1 µM, first compound 0.3 µM
[18] = second compound 3.16 µM, first compound 0.00949 µM
[19] = second compound 3.16 µM, first compound 0.03 µM
[20] = second compound 3.16 µM, first compound 0.0949 µM
[21] = second compound 3.16 µM, first compound 0.3 µM
[22] = second compound 10 µM, first compound 0.00949 µM
[23] = second compound 10 µM, first compound 0.03 µM
[24] = second compound 10 µM, first compound 0.0949 µM
[25] = second compound 10 µM, first compound 0.3 µM

CC(C)CC(NC(=O)C(Cc1ccccc1)NC(=O)c1cnccn1)B(O)O (configuration not stated) + Cc1cncc(-c2nc(NCCc3c[nH]c4ccccc34)c3ncn(C(C)C)c3n2)c1
IC50 [1]: 58.1 nM
IC50 [2]: 57.2 nM
IC50 [3]: 54.6 nM
IC50 [4]: 41.1 nM
IC50 [5]: < 0.949 nM
viability, T/C (second compound 0.1 µM, first compound 0.000949 µM): 96.8%
viability, T/C (second compound 0.1 µM, first compound 0.003 µM): 102%
viability, T/C [6]: 102%
viability, T/C [7]: 74.7%
viability, T/C [8]: 32.2%
viability, T/C [9]: 27.2%
viability, T/C (second compound 0.316 µM, first compound 0.000949 µM): 96.3%
viability, T/C (second compound 0.316 µM, first compound 0.003 µM): 100%
viability, T/C [10]: 101%
viability, T/C [11]: 72.1%
viability, T/C [12]: 33.2%
viability, T/C [13]: 23.6%
viability, T/C (second compound 1 µM, first compound 0.000949 µM): 96.7%
viability, T/C (second compound 1 µM, first compound 0.003 µM): 95%
viability, T/C [14]: 96.6%
viability, T/C [15]: 68.2%
viability, T/C [16]: 33.6%
viability, T/C [17]: 25%
viability, T/C (second compound 3.16 µM, first compound 0.000949 µM): 82.9%
viability, T/C (second compound 3.16 µM, first compound 0.003 µM): 76.3%
viability, T/C [18]: 75.9%
viability, T/C [19]: 59.5%
viability, T/C [20]: 25.6%
viability, T/C [21]: 15.4%
viability, T/C (second compound 10 µM, first compound 0.000949 µM): 19.6%
viability, T/C (second compound 10 µM, first compound 0.003 µM): 24.7%
viability, T/C [22]: 15%
viability, T/C [23]: 1.7%
viability, T/C [24]: 0.78%
viability, T/C [25]: 0.54%

O=C(C=Cc1cccc(S(=O)(=O)Nc2ccccc2)c1)NO + CC(CO)NC(=O)c1cc(-c2ccc(Cl)cc2)nn(-c2cnn(C)c2)c1=O
IC50 [1]: 1050 nM
IC50 [2]: 875 nM
IC50 [3]: 995 nM
IC50 [4]: 819 nM
IC50 [5]: 928 nM
viability, T/C (second compound 0.1 µM, first compound 0.0316 µM): 99.8%
viability, T/C (second compound 0.1 µM, first compound 0.1 µM): 95.7%
viability, T/C (second compound 0.1 µM, first compound 0.316 µM): 76%
viability, T/C (second compound 0.1 µM, first compound 1 µM): 52.2%
viability, T/C (second compound 0.1 µM, first compound 3.16 µM): 23.3%
viability, T/C (second compound 0.1 µM, first compound 10 µM): 6.15%
viability, T/C (second compound 0.316 µM, first compound 0.0316 µM): 101%
viability, T/C (second compound 0.316 µM, first compound 0.1 µM): 95%
viability, T/C (second compound 0.316 µM, first compound 0.316 µM): 76.4%
viability, T/C (second compound 0.316 µM, first compound 1 µM): 45.9%
viability, T/C (second compound 0.316 µM, first compound 3.16 µM): 21%
viability, T/C (second compound 0.316 µM, first compound 10 µM): 6.73%
viability, T/C (second compound 1 µM, first compound 0.0316 µM): 108%
viability, T/C (second compound 1 µM, first compound 0.1 µM): 101%
viability, T/C (second compound 1 µM, first compound 0.316 µM): 79.1%
viability, T/C (second compound 1 µM, first compound 1 µM): 50%
viability, T/C (second compound 1 µM, first compound 3.16 µM): 22.3%
viability, T/C (second compound 1 µM, first compound 10 µM): 5.69%
viability, T/C (second compound 3.16 µM, first compound 0.0316 µM): 103%
viability, T/C (second compound 3.16 µM, first compound 0.1 µM): 91.9%
viability, T/C (second compound 3.16 µM, first compound 0.316 µM): 72.4%
viability, T/C (second compound 3.16 µM, first compound 1 µM): 45.7%
viability, T/C (second compound 3.16 µM, first compound 3.16 µM): 19.9%
viability, T/C (second compound 3.16 µM, first compound 10 µM): 5.14%
viability, T/C (second compound 10 µM, first compound 0.0316 µM): 89.4%
viability, T/C (second compound 10 µM, first compound 0.1 µM): 84.2%
viability, T/C (second compound 10 µM, first compound 0.316 µM): 72.4%
viability, T/C (second compound 10 µM, first compound 1 µM): 49.3%
viability, T/C (second compound 10 µM, first compound 3.16 µM): 19.8%
viability, T/C (second compound 10 µM, first compound 10 µM): 4.82%

Nc1ncn(C2CC(O)C(CO)O2)c(=O)n1 (configuration not stated)
viability, T/C (compound 0.00316 µM): 101% and 99.1% and 104%
viability, T/C (compound 0.01 µM): 97.8% and 103% and 98.1%
viability, T/C (compound 0.0316 µM): 94% and 94.8% and 88.5%
viability, T/C (compound 0.1 µM): 82.6% and 82.3% and 82%
viability, T/C (compound 0.316 µM): 76% and 70.8% and 68.8%
viability, T/C (compound 1 µM): 65% and 59.9% and 63.7%
IC50 (curve of compound): > 1000 nM

O=C(C=Cn1cnc(-c2cc(C(F)(F)F)cc(C(F)(F)F)c2)n1)NNc1cnccn1 + Cc1ccccc1N=Nc1ccc(NC(=O)c2ccnn2C)c(C)c1
IC50 [1]: 1750 nM
IC50 [2]: 2350 nM
IC50 [3]: 2830 nM
IC50 [4]: 2120 nM
IC50 [5]: 1640 nM
viability, T/C [6]: 109%
viability, T/C [7]: 113%
viability, T/C [8]: 102%
viability, T/C [9]: 83.4%
viability, T/C (second compound 0.1 µM, first compound 0.949 µM): 59.2%
viability, T/C (second compound 0.1 µM, first compound 3 µM): 42.2%
viability, T/C [10]: 115%
viability, T/C [11]: 109%
viability, T/C [12]: 100%
viability, T/C [13]: 82.4%
viability, T/C (second compound 0.316 µM, first compound 0.949 µM): 59.6%
viability, T/C (second compound 0.316 µM, first compound 3 µM): 47.5%
viability, T/C [14]: 114%
viability, T/C [15]: 116%
viability, T/C [16]: 106%
viability, T/C [17]: 90%
viability, T/C (second compound 1 µM, first compound 0.949 µM): 64.6%
viability, T/C (second compound 1 µM, first compound 3 µM): 49.2%
viability, T/C [18]: 114%
viability, T/C [19]: 118%
viability, T/C [20]: 113%
viability, T/C [21]: 90.8%
viability, T/C (second compound 3.16 µM, first compound 0.949 µM): 66.7%
viability, T/C (second compound 3.16 µM, first compound 3 µM): 43%
viability, T/C [22]: 108%
viability, T/C [23]: 111%
viability, T/C [24]: 108%
viability, T/C [25]: 89.3%
viability, T/C (second compound 10 µM, first compound 0.949 µM): 63%
viability, T/C (second compound 10 µM, first compound 3 µM): 36.4%
